Measurements taken from US6559339B1, “Method for crystallizing carboxylic acid” (Rhodia Fiber & Resin Intermediates, priority 1998, dated 2003).
One block for each molecule: values may come before it.

Assay: heating test: absorbance at 454 nm of ammonium adipate solutions after heating the adipic acid batches
Type: physicochemical
Settings: 50 g heated to 215° C. for 205 min, then placed in 415 ml aqueous 5% ammonia solution, reference adipic acid (A) = 1
Procedure: The adipic acid batches (A) and (B) are subjected to a heating test. This test consists in heating 50 g of each batch to 215° C. for 205 min and then placing each of them in 415 ml of aqueous 5% ammonia solution. The absorbence at 454 nm of the ammonium adipate solutions obtained is then measured.
The results below are obtained, expressed as relative absorbences, the reference adipic acid (A) representing the value 1:
This test consists in heating 50 g of each batch to 215° C. for 205 min and then placing each of them in 415 ml of aqueous 5% ammonia solution.
The absorbance at 454 nm of the ammonium adipate solutions obtained is then measured.
The following results are obtained, expressed as relative absorbances, the reference adipic acid (A) representing the value 1: […]

SMILES: O=C(O)CCCCC(=O)O [adipic acid (A), adipic acid, reference compound]
Relative absorbance at 454 nm: 1 | relative absorbence at 454 nm: 1

SMILES: O=C(O)CCCCC(=O)O [adipic acid (B), adipic acid]
relative absorbence at 454 nm: 0.25

More lines, now with the values ahead:

Relative absorbance at 454 nm (listed as E): 0.5
SMILES: O=C(O)CCCCC(=O)O [adipic acid (E), adipic acid]

Relative absorbance at 454 nm (listed as C): 0.3
SMILES: O=C(O)CCCCC(=O)O [adipic acid (C), adipic acid]

Relative absorbance at 454 nm (listed as D): 0.2
SMILES: O=C(O)CCCCC(=O)O [adipic acid (D), adipic acid]
